Reference: paper PMC11514314, “The aquastatin biosynthetic gene cluster encodes a versatile polyketide synthase capable of synthesising heteromeric depsides with diverse alkyl side chains” (Chemical Science, 2024)
In brackets after ≈: the same amount, converted by molar mass.

Key:
B. subtilis (ATCC 6633) [1] = test: Antibacterial ProTOX bioassay, B. subtilis; type: cell-based; conditions: Bacillus subtilis, ATCC6633; B. subtilis ATCC 6633, 48 h, 28 °C; read-out: Minimum inhibitory concentration (MIC) B. subtilis
Procedure: (§1) 12. Bioactivity screening.
(§2) Purified metabolites were dissolved in DMSO to create stock solutions of 10,000 µg/mL. An aliquot from each stock solution was transferred to the first well of Rows B to G on a 96-well microtitre plate and then serially diluted two-fold with DMSO across the 12 wells of the plate to achieve a 2,048-fold concentration gradient. Bioassay medium was added to an aliquot of each diluted solution to achieve a 100-fold dilution in the final bioassay. This […]
(§3) 0.1 µg/mL in 2% DMSO for yeasts. Row A served as a control with no test compound (indicating no inhibition), and Row H was left uninoculated (serving as a control for complete inhibition).
(§4) B. subtilis (ATCC 6633), S. aureus (ATCC 25923) and MRSA (ATCC 33592) were used as indicator species for antibacterial activity, employing the ProTOX bioassay platform. A bacterial suspension (50 mL in a 250 mL flask) was prepared in nutrient media by cultivating it for 24 h at 250 rpm and 28 °C. The suspension was diluted to an absorbance of 0.01 absorbance units per mL, and 10 µL aliquots were added to the wells of a 96-well microtitre plate containing the test compounds dispersed in 190 µL of nutrient broth (Amyl) with 10 µL resazurin (12.5 µg/mL). The plates were incubated at 28 °C for 48 h, during which the positive control wells changed colour from blue to light pink. Tetracycline was employed as a control for B. subtilis, while ampicillin was used for S. aureus and MRSA. MIC endpoints were determined visually. Absorbance was measured using a Multiskan Skyhigh Microplate Spectrophotometer (Thermo Fisher Scientific) at 605 nm.

S. aureus (ATCC 25923) [2] = test: Antibacterial ProTOX bioassay, S. aureus; type: cell-based; conditions: Staphylococcus aureus, ATCC25923; S. aureus ATCC 25923, 48 h, 28 °C; read-out: Minimum inhibitory concentration (MIC) S. aureus
Procedure: as §1, §2, §3, §4

MRSA (ATCC 33592) [3] = test: Antibacterial ProTOX bioassay, MRSA; type: cell-based, methicillin-resistant S. aureus; conditions: Staphylococcus aureus; MRSA ATCC 33592, 48 h, 28 °C; read-out: Minimum inhibitory concentration (MIC) MRSA
Procedure: as §1, §2, §3, §4

[4] = tested on: Saccharomyces cerevisiae (ATCC 9763); test: Antifungal EuTOX bioassay, S. cerevisiae; type: cell-based; conditions: Saccharomyces cerevisiae, ATCC9763; S. cerevisiae ATCC 9763, 48 h; read-out: Minimum inhibitory concentration (MIC) S. cerevisiae
Procedure: as §1, §2
(§5) 0.1 µg/mL in 2% DMSO for yeasts. Row A served as a control with no test compound (indicating no inhibition), and Row H was left uninoculated (serving as a control for complete inhibition). […]
(§6) MIC endpoints were determined visually. Absorbance was measured using a Multiskan Skyhigh […]
Saccharomyces cerevisiae (ATCC 9763) was used as indicator species for antifungal activity, employing the EuTOX bioassay platform. A yeast suspension (50 mL in a 250 mL flask) was prepared in 1% malt extract broth by cultivating it for 24 h at 250 rpm and 24 °C. The suspension was diluted to absorbances of 0.03 absorbance units per mL and 30 µL were added to the wells of a 96-well microtitre plate containing the test compounds dispersed in 100 µL of malt extract agar with bromocresol green (50 µg/mL). The plates were incubated at 28 °C for 48 h, during which the positive control wells changed colour from blue to yellow. Blasticidin S HCl was used

[5] = tested on: NS-1 (ATCC TIB-18) mouse myeloma cells; test: Cytotoxicity resazurin assay, NS-1 cells; type: cell-based; conditions: NS1; mouse myeloma NS-1 ATCC TIB-18, 96 h; read-out: IC50 NS-1
Procedure: as §1, §2, §5, §6, §6
(§7) NS-1 (ATCC TIB-18) mouse myeloma and NFF (ATCC PCS -201) human neonatal foreskin fibroblast cells were each inoculated in 96-well microtitre plates (190 µL) at 50,000 cells/mL in DMEM (Dulbecco's Modified Eagle Medium + 10% fetal bovine serum (FBS) + 1% penicillin/streptomycin (10,000 U/mL / 10,000 µg/mL, Life Technologies Cat. No. 15140122), together with resazurin (250 µg/mL; 10 µL) and incubated in 37 °C (5% CO2) incubator. The plates were incubated for 96 h during which time the positive control wells change colour from a blue to pink colour. The absorbance of each well was measured using Multiskan Skyhigh Microplate Spectrophotometer (Thermofisher Scientific) at 605 nm. Sparsomycin was used as a control. The IC50 values were determined using a sigmoidal dose-response model with variable slope in GraphPad Prism 8.

[6] = tested on: NFF (ATCC PCS-201) human neonatal foreskin fibroblast cells; test: Cytotoxicity resazurin assay, NFF cells; type: cell-based; conditions: Homo sapiens; neonatal foreskin fibroblast NFF, 96 h; read-out: IC50 NFF
Procedure: as §1, §2, §5, §6, §6, §7

[7] = tested on: mammalian adenosine triphosphatases; design: method as in PMID 8270486; conditions: cited from earlier work
HIV-1 integrase = tested on: HIV-1 integrase; design: method as in PMID 19952429, PMID 15015729; conditions: cited from earlier work
[8] = tested on: fatty acid synthase II (FAS II); conditions: cited from earlier work
[9] = tested on: methicillin-resistant S. aureus (MRSA); design: method as in PMID 19952429; conditions: cited from earlier work
B. subtilis (ATCC 6633) [10] = tested on: B. subtilis (ATCC 6633); design: method as in Crombie et al.[17]; conditions: ref Crombie et al.[17]; cited from earlier work
S. aureus (ATCC 25923) [11] = tested on: S. aureus (ATCC 25923); design: method as in Crombie et al.[17]; conditions: ref Crombie et al.[17]; cited from earlier work
MRSA (ATCC 33592) [12] = tested on: MRSA (ATCC 33592); design: method as in Crombie et al.[17]; conditions: ref Crombie et al.[17]; cited from earlier work
[13] = tested on: Saccharomyces cerevisiae (ATCC 9763); conditions: S. cerevisiae ATCC 9763; ref Crombie et al.[17]; cited from earlier work
[14] = tested on: NS-1 (ATCC TIB-18) mouse myeloma cells; design: method as in Crombie et al.[17]; conditions: mouse myeloma NS-1; ref Crombie et al.[17]; cited from earlier work
[15] = tested on: NFF (ATCC PCS-201) human neonatal foreskin fibroblast cells; design: method as in Crombie et al.[17]; conditions: ref Crombie et al.[17]; cited from earlier work

Structure (SMILES)	MIC (B. subtilis (ATCC 6633) [1]) [µg/mL]	MIC (S. aureus (ATCC 25923) [2]) [µg/mL]	MIC (MRSA (ATCC 33592) [3]) [µg/mL]	MIC [4] [µg/mL]	IC50 [5] [µg/mL]	IC50 [6] [µg/mL]	inhibition of mammalian adenosine triphosphatases [7]	inhibition of HIV-1 integrase (HIV-1 integrase)	inhibition of fatty acid synthase II (FAS II) [8]	antibacterial activity against MRSA [9]	Minimum inhibitory concentration (MIC) B. subtilis (B. subtilis (ATCC 6633) [10]) [µg/mL]	Minimum inhibitory concentration (MIC) S. aureus (S. aureus (ATCC 25923) [11]) [µg/mL]	Minimum inhibitory concentration (MIC) MRSA (MRSA (ATCC 33592) [12]) [µg/mL]	Minimum inhibitory concentration (MIC) S. cerevisiae [13] [µg/mL]	IC50 NS-1 [14] [µM]	IC50 NFF [15] [µM]
CCCCCCCCCCCCCCCc1cc(O[C@@H]2O[C@H](CO)[C@@H](O)[C@H](O)[C@H]2O)cc(O)c1C(=O)Oc1cc(C)c(C(=O)O)c(O)c1 [1a, Aquastatin A]	1.6 (≈ 2.36 µM)	12.5 (≈ 18.5 µM)	1.6 (≈ 2.36 µM)	> 200	> 100	> 100	inhibitor	inhibit	inhibit	demonstrated antibacterial activity						
CCCCC/C=C\C/C=C\CCCCCCCc1cc(O[C@@H]2O[C@H](CO)[C@H](O)[C@H](O)[C@H]2O)cc(O)c1C(=O)Oc1cc(C)c(C(=O)O)c(O)c1 [2a, Geministatin A]											1.6 (≈ 2.28 µM)	6.3 (≈ 8.99 µM)	6.3 (≈ 8.99 µM)	>200	>50	>100
CCCCC/C=C\C/C=C\CCCCCCCc1cc(O)cc(O)c1C(=O)Oc1cc(C)c(C(=O)O)c(O)c1 [2b, Geministatin B]											0.4 (≈ 0.743 µM)	3.1 (≈ 5.75 µM)	1.6 (≈ 2.97 µM)	>200	>50	>100
